Results on four compounds are retold here after US20250213735A1, “NEUROPEPTIDE Y1 RECEPTOR (NPY1R) TARGETED THERAPEUTICS AND USES THEREOF” (Radionetics Oncology, Inc., priority 2023, published 2025).

In the assay the target is hNPY1R (Homo sapiens (Human), UniProt P25929). Description: NPY1R binding assay (SK-N-MC membrane, [125I]-Peptide YY competition).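 Also: bound radioligand separated by filtration over GF/C filter plates and counted, Ki obtained by non-linear regression.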 The following applies: crude SK-N-MC membranes endogenously expressing NPY1R; [125I]-Peptide YY (human) 0.05 nM; 120 min at room temperature; read-out: hNPY1R binding Ki.
hNPY1R, sequence (P25929 whole entry): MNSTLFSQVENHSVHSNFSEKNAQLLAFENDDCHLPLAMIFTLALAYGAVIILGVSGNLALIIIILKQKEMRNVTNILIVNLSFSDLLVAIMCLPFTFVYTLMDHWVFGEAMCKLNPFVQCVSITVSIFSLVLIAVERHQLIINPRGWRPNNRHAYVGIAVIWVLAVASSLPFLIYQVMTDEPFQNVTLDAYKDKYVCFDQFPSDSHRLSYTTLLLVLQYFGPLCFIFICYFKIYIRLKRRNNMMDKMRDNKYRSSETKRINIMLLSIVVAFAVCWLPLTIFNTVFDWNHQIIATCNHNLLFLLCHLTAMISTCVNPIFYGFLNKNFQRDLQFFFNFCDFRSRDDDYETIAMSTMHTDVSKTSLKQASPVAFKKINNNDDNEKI
`N=C(N)NCCC[C@@H](NC(=O)C(c1ccccc1)N1CCC2(CCC2)CC1)C(=O)NCc1ccc(O)cc1` (stereo partly drawn) [compound 89, (2R)-5-guanidino-N-(4-hydroxybenzyl)-2-(2-phenyl-2-(7-azaspiro[3.5]nonan-7-yl)acetamido)pentanamide]: the Ki was 10 to 100 nM.

On to `N=C(N)NCCC[C@@H](NC(=O)C(c1ccccc1)N1CCCCC1)C(=O)NCc1ccc(O)cc1` (stereo partly drawn) [compound 72, (2R)-5-guanidino-N-(4-hydroxybenzyl)-2-(2-phenyl-2-(piperidin-1-yl)acetamido)pentanamide], for which the inhibitory constant (Ki) was 100 to 1000 nM. For the compound `CCC(=O)NCCNC(=O)/N=C(/N)NCCC[C@@H](NC(=O)[C@H](c1ccc(OCCCCNC(=O)CCCCCNC(=O)CN2CCN(CC(=O)O)CCN(CC(=O)O)CCN(CC(=O)O)CC2)cc1)N1Cc2ccccc2C1)C(=O)NCc1ccc(O)cc1` [compound 57, 2,2′,2″-(10-(2-((6-((4-(4-((1S,4R,Z)-9-amino-4-((4-hydroxybenzyl)carbamoyl)-1-(isoindolin-2-yl)-2,11,16-trioxo-3,8,10,12,15-pentaazaoctadec-9-en-1-yl)phenoxy)butyl)amino)-6-oxohexyl)amino)-2-oxoethyl)-1,4,7,10-tetraazacyclododecane-1,4,7-triyl)triacetic acid], the inhibition constant Ki is under 10 nM. On to `CCC(=O)NCCNC(=O)/N=C(/N)NCCC[C@@H](NC(=O)[C@H](c1cccc(NCCCNC(=O)CCCCCNC(=O)NCCONC(=O)CN2CCN(CC(=O)O)CCN(CC(=O)O)CCN(CC(=O)O)CC2)c1)N1Cc2ccccc2C1)C(=O)NCc1ccc(O)cc1` [compound 27, 2,2′,2″-(10-(19-((3-((1S,4R,Z)-9-amino-4-((4-hydroxybenzyl)carbamoyl)-1-(isoindolin-2-yl)-2,11,16-trioxo-3,8,10,12,15-pentaazaoctadec-9-en-1-yl)phenyl)amino)-2,8,15-trioxo-4-oxa-3,7,9,16-tetraazanonadecyl)-1,4,7,10-tetraazacyclododecane-1,4,7-triyl)triacetic acid], for which the Ki is under 10 nM.

In general, Ki refers to the equilibrium dissociation constant of an inhibitor or competing ligand from its target.
